The text below walks through data of patent US20100183692A1, “COMPOSITIONS” (priority 2007, published 2010).

Each structure is given as a SMILES string. “Also recorded” adds a separate entry of the source.

Holding throughout (format): cell-based
Assay [1] relates to Aspergillus niger ATCC 16404 spores. Kind of assay: Sporicidal effect of test compounds in water. Conditions: for Spores/ml / Reduction factor: 0.1% test compound in water, after 7 days; for Reduction factor: count of negative control divided by count of test compound; for Reduction of spore counts / sporicidal effect in water (in words): 0.1% test compound, 7 days. On the procedure: The reduction factor is determined by growing a suitable test organism (Aspergillus niger for fungi, Pseudomonas aeruginosa for gram-negative bacteria and Staphylococcus aureus for gram-positive bacteria) on a suitable culture medium on agar plates, harvesting and adding to a personal care product composition in a density of 3×10^5 organism/ml and counting the surviving organisms in the probe and a negative control at defined time interval, commonly 7 days. The count of the negative control is divided by the count of the probe and thereby the reduction factor is determined (compare example 1).
Aspergillus niger ATCC 16404 spores are added to water to obtain a density of 3×10^5 spores 1 ml. In order to prepare the spores, the test strain is grown for 5 days on potato dextrose agar at room temperature. The spores are harvested with a solution containing 0.1% Tween 80, peptone 0.1% and NaCl 0.85% and the spore concentration is adjusted to the density indicated above.
Test compounds are dissolved in dipropyleneglycol to a concentration of 20%.
These stock solutions are added to 10 ml aliquots of the spore suspension to obtain a final concentration of the test compounds of 0.1%. The sporicidal effect is shown by a reduction of spore counts after 7 days.
The reduction factor is determined as follows. Aliquots of the above prepared suspension of microorganisms (here: spore suspension prepared as described above) are plated on a suitable agar medium (see above) and the developing colonies are counted both for samples with test compound and for a negative probe (water). The count of the negative control is divided by the count of the test compound and thereby the reduction factor is determined. A negative control (water) accordingly has a reduction factor of 1 (no effect on the microorganism).

Assay [2] has the same test system. Kind of assay: Sporicidal effect of a) and b) compounds in a cosmetic cream. Particulars: for Reduction factor: cosmetic cream. The protocol:
A preservative-free cosmetic cream for application to the human skin is used (Cremor basalis, Fagron GmbH, Barsbüttel, Germany).
Test samples of cream contain different amounts of compounds a) and b) added to an aliquot of 10 g of the cream in 50 ml tubes to give a concentration (w/w) of 0.125-0.25% as shown in the table below. After addition of the compounds a) and b), the cream is thoroughly mixed to achieve a homogeneous distribution.
After 1-3 days of equilibration of the cream (storage at room temperature to achieve a homogenous partitioning of compounds between oil and water phase), to each sample 100 μl of a spore suspension of Aspergillus niger ATCC 16404 containing 3×10^7 spores/ml (prepared as described in example 1) is added. After regular test intervals (7 days), samples of 1 g cream are removed and added to 20 ml of a neutralizer solution containing 0.2% lecithin, 2% Tween 80 and 0.5% NaCl. These dilutions are vigorously shaken for 10 min until the cream is dissolved, and then aliquots of this solution are spread plated on potato dextrose agar containing 0.2% Tween 80. After a sufficient time for colonies to grow (about 48 h), the number of colony forming units (and therefore surviving spores in the cream) are counted.

Assay [3] concerns Staphylococcus aureus (DSMZ 799) and Pseudomonas aeruginosa (ATCC 15442), mixed 1:1. Put plainly: Bactericidal effect of a) and b) compounds in a cosmetic cream. On the procedure: Test samples of the same cream used in Example 2 contain different amounts of compounds a) and b) added to an aliquot of 10 g of the cream in 50 ml tubes to give a concentration (w/w) of 0.125-0.25% as shown in the table below. After addition of the compounds a) and b), the cream is thoroughly mixed to achieve a homogeneous distribution.
As test organisms Staphylococcus aureus (DSMZ 799) and Pseudomonas aeruginosa (ATCC 15442) are used. The strains are grown overnight in Mueller-Hinton broth and adjusted to a cell density of 1×10^8 cfu (colony forming units) per ml.
The two bacterial strains are mixed in a ratio of 1:1 and 100 μl of this mixed inoculum is added to 10 ml aliquots of the cosmetic cream.
The resulting mixtures are incubated at room temperature and at the regular intervals samples are removed, suspended in neutralizer solution and diluted as described above (example 2).
Aliquots of these suspended and diluted samples are plated on tryptic soy agar supplemented with 0.5% Tween 80 and then incubated for 24 h at 37° C. Surviving bacteria are counted.

Setting [4] is: fragrant acid (sodium salt) 0.125% w/w, 4-HBA 0, after 7 days.
The mark [5] stands for this setting: fragrant acid (sodium salt) 0.250% w/w, 4-HBA 0, after 7 days.
Setting [6] is: fragrant acid (sodium salt) 0.125% w/w, 4-HBA 0, after 24 h.
Where [7] appears, read: fragrant acid (sodium salt) 0.250% w/w, 4-HBA 0, after 24 h.

For `O=Cc1ccc(O)cc1` [4-hydroxybenzaldehyde], in assay [1], the Spores/ml was >1.2 × 10^5 Spores/ml, the Reduction factor is given as <2 and the “Reduction of spore counts / sporicidal effect in water (in words)” value is listed as “no significant sporicidal effect; also recorded: No significant reduction of spore counts”. In assay [2] (combined with cinnamic acid or anisic acid in cream at 0.125% concentration, within 7 days), the “Sporicidal activity in cream (in words)” value is “complete killing of spores”. In assay [2] (no fragrant acid, 4-HBA 0.125% w/w, after 7 days), this compound came in with a Reduction factor of 5.5. For the same compound, the Reduction factor in assay [3] (no fragrant acid, 4-HBA 0.125% w/w, bacterial counts after 24 h) stood at 10.

Regarding `COc1ccc(C=O)cc1` [4-methoxy-benzaldehyde, 4-methoxybenzaldehyde], in assay [1], the Spores/ml is recorded as 4.68 × 10^4 Spores/ml, the Reduction factor worked out at 5 and the “Reduction of spore counts / sporicidal effect in water (in words)” value was “No significant reduction of spore counts”.

For the compound `COc1ccc(C(=O)O)cc1` [Anisic acid, anisic acid], the Reduction factor in assay [2] (setting [4]) was 1.4; in assay [2] (setting [5]), 12.5; in assay [3] (setting [6]), 1; in assay [3] (setting [7]), 5.

For the compound `O=C(O)/C=C/c1ccccc1` [Cinnamic acid, cinnamic acid], the Reduction factor in assay [2] (setting [4]) stood at 1.0; in assay [2] (setting [5]), 1.1; in assay [3] (setting [6]), 2.0; in assay [3] (setting [7]) it was 10.
